Test systems include OVCAR-8; SNB-75; IGROV-1; K562; NCI-H226; OVCAR-5; SK-MEL-5; DMS-273; RPMI-8226; OVCAR-3; HCT-116; HL-60; UACC-62; U-251; NCI-H23; SK-MEL-28; HT-29.
Holding throughout (assay): NCI anticancer screen, dose series, 48 h

Here are results for twelve compounds from ChEMBL document CHEMBL1201862, “PubChem BioAssay data set” (2004).

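Results reflect a 48-hour exposure of cells in 96-well plates to compound at five concentrations. GI50: concentration for 50% inhibition of growth.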 Calls of active or inactive are those of the source. Rule as the data show it: active = GI50 up to about 1.1 µM and inactive = higher.

In the case of `Cc1ccc(NC(=O)CC2Sc3ccccc3NC2=O)c(C)c1` (stereo not given), the GI50 in the assay with OVCAR-8 was 18.5 µM (inactive); with SNB-75 it was 4.52 µM (inactive); in the assay with IGROV-1 it was 23.6 µM (inactive); with K562 it was 4.01 µM (inactive); in the assay with NCI-H226, 14.8 µM (inactive); with OVCAR-5 it was 23.3 µM (inactive). Also, the GI50 was 6.97 µM (inactive) in the assay on SK-MEL-5; 12.2 µM (inactive) with DMS-273; 12.8 µM (inactive) with RPMI-8226; 12.2 µM (inactive) with OVCAR-3; 10.3 µM (inactive) in the assay with HCT-116; 2.73 µM (inactive) with HL-60. The GI50 in the assay with UACC-62 was 12.2 µM (inactive); in the assay on U-251, 14 µM (inactive); in the assay with NCI-H23 it was 16.2 µM (inactive); in the assay with SK-MEL-28 it was 20.1 µM (inactive).

Regarding `CS/C(=N\c1nccs1)NC(=O)c1cccc(Cl)c1`, the GI50 is > 100 µM (inactive) with OVCAR-8; 49.5 µM (inactive) in the assay with SNB-75; > 100 µM (inactive) in the assay on IGROV-1; > 100 µM (inactive) in the assay with K562; > 100 µM (inactive) with NCI-H226; > 100 µM (inactive) in the assay with OVCAR-5. In addition, the GI50 with SK-MEL-5 is > 100 µM (inactive); with HT-29 it was > 100 µM (inactive); with DMS-273 it was > 100 µM (inactive); in the assay with RPMI-8226 it was 97.7 µM (inactive); with OVCAR-3 it was 75.2 µM (inactive); in the assay on HCT-116, > 100 µM (inactive). The GI50 in the assay on HL-60 is 56.8 µM (inactive); with UACC-62, > 100 µM (inactive); in the assay on U-251, 72.1 µM (inactive); in the assay with NCI-H23 it was > 100 µM (inactive); in the assay on SK-MEL-28, > 100 µM (inactive).

In the case of `CC(C)OP(=O)(OC(C)C)/C(Cl)=N/Nc1ccc([N+](=O)[O-])cc1`, the GI50 in the assay with OVCAR-8 is > 100 µM (inactive); in the assay on SNB-75, > 100 µM (inactive); in the assay on K562 it was 38.7 µM (inactive); with NCI-H226 it was 0.778 µM (active); in the assay with OVCAR-5, > 100 µM (inactive); in the assay on SK-MEL-5, > 100 µM (inactive). Further, the GI50 with DMS-273 was > 100 µM (inactive); in the assay with RPMI-8226, > 100 µM (inactive); with OVCAR-3, > 100 µM (inactive); in the assay with HCT-116, > 100 µM (inactive); in the assay on HL-60, 43.7 µM (inactive); in the assay on UACC-62, 44.8 µM (inactive). Further, the GI50 in the assay on U-251, in the assay with NCI-H23 and in the assay on SK-MEL-28 was > 100 µM (inactive) each time.

Consider `COc1ccc(O)c2c(=O)ccccc12`, for which the GI50 in the assay on OVCAR-8 was > 100 µM (inactive); with SNB-75 it was > 100 µM (inactive); in the assay on IGROV-1 it was > 100 µM (inactive); in the assay on K562 it was > 100 µM (inactive); with NCI-H226 it was 46.2 µM (inactive); in the assay with OVCAR-5, > 100 µM (inactive). Also, the GI50 with SK-MEL-5, with HT-29, in the assay with DMS-273, with RPMI-8226, with OVCAR-3 and with HCT-116 was > 100 µM (inactive) in each case. In addition, the GI50 was > 100 µM (inactive) in the assay with HL-60; 92.3 µM (inactive) with UACC-62; > 100 µM (inactive) in the assay with U-251; > 100 µM (inactive) in the assay with NCI-H23; > 100 µM (inactive) in the assay with SK-MEL-28.

As for `COc1cc(O)c2c(c1)O[C@@H]1OCC[C@H]21`, the GI50 in the assay on OVCAR-8, with SNB-75, in the assay on IGROV-1, in the assay with K562, with NCI-H226 and with OVCAR-5 was > 100 µM (inactive) throughout. Besides, the GI50 with SK-MEL-5, in the assay on HT-29, in the assay on DMS-273, in the assay on RPMI-8226, with OVCAR-3 and in the assay with HCT-116 was > 100 µM (inactive) throughout. Moreover, the GI50 in the assay with HL-60, with UACC-62, with U-251, in the assay on NCI-H23 and with SK-MEL-28 was > 100 µM (inactive) each time.

Turning to `COC(=O)C1CSC(c2csc(CCN)n2)=N1` (stereo not given), the GI50 in the assay on OVCAR-8, with SNB-75, in the assay with IGROV-1, in the assay with K562, in the assay with NCI-H226 and in the assay with OVCAR-5 was > 100 µM (inactive) throughout. For the same compound, the GI50 in the assay with SK-MEL-5, with HT-29, in the assay with DMS-273, with RPMI-8226, with OVCAR-3 and in the assay on HCT-116 was > 100 µM (inactive) each time. Besides, the GI50 in the assay on HL-60, in the assay with UACC-62, in the assay on U-251, with NCI-H23 and with SK-MEL-28 was > 100 µM (inactive) throughout.

In the case of `COc1cc(/C=C\c2ccncc2)cc(OC)c1OC`, the GI50 with OVCAR-8 was > 100 µM (inactive); with SNB-75, 37.8 µM (inactive); in the assay with IGROV-1, > 100 µM (inactive); in the assay with K562, 27.3 µM (inactive); with NCI-H226, > 100 µM (inactive); in the assay with OVCAR-5, 63.5 µM (inactive). The GI50 with SK-MEL-5 was 57.5 µM (inactive); with HT-29 it was 40.6 µM (inactive); in the assay with DMS-273, 63.8 µM (inactive); in the assay on RPMI-8226 it was 38.3 µM (inactive); in the assay on OVCAR-3, > 100 µM (inactive); in the assay on HCT-116, 99.1 µM (inactive). Also, the GI50 in the assay on HL-60 was 24.1 µM (inactive); in the assay on UACC-62, 59.2 µM (inactive); in the assay on U-251 it was > 100 µM (inactive); in the assay on SK-MEL-28, > 100 µM (inactive).

Consider `CCN(CC)CC(C(=O)Nc1c(C)cccc1C)/C(C)=N\NC(=S)NN` (stereo not given), for which the GI50 in the assay with OVCAR-8, in the assay with SNB-75, in the assay with IGROV-1, in the assay on K562, with NCI-H226 and in the assay with OVCAR-5 was > 100 µM (inactive) each time. For the same compound, the GI50 in the assay with SK-MEL-5, with HT-29, in the assay on DMS-273, with RPMI-8226, in the assay with OVCAR-3 and in the assay with HCT-116 was > 100 µM (inactive) in each case. Besides, the GI50 in the assay with HL-60, in the assay with UACC-62, in the assay on U-251, in the assay on NCI-H23 and in the assay with SK-MEL-28 was > 100 µM (inactive) each time.

Turning to `CC(C)(C)C(=O)C(c1ccc(-c2cscn2)cc1)c1ccc(-c2cscn2)cc1`, the GI50 in the assay on OVCAR-8 was 16.7 µM (inactive); with SNB-75 it was 6.25 µM (inactive); with IGROV-1, 37.8 µM (inactive); in the assay with K562, > 92.9 µM (inactive); in the assay on NCI-H226 it was > 49.7 µM (inactive); in the assay on OVCAR-5 it was > 100 µM (inactive). Also, the GI50 was 38.1 µM (inactive) in the assay with SK-MEL-5; 72.3 µM (inactive) with HT-29; 58.3 µM (inactive) with DMS-273; 32.1 µM (inactive) with RPMI-8226; 28.1 µM (inactive) with OVCAR-3; 44 µM (inactive) in the assay with HCT-116. Moreover, the GI50 in the assay with HL-60 was > 100 µM (inactive); in the assay with UACC-62, 21.7 µM (inactive); with U-251, 20.7 µM (inactive); in the assay on NCI-H23, 30.5 µM (inactive); with SK-MEL-28 it was 46.3 µM (inactive).

Take `NC(=S)NNc1c([N+](=O)[O-])cnn(-c2ccccc2)c1=O`: the GI50 in the assay on OVCAR-8 is 14.5 µM (inactive); in the assay with SNB-75 it was 19.4 µM (inactive); with IGROV-1, 19.1 µM (inactive); with K562, 4.36 µM (inactive); with NCI-H226, 19.1 µM (inactive); in the assay with OVCAR-5 it was 18.4 µM (inactive). The GI50 with SK-MEL-5 was 18.7 µM (inactive); in the assay with HT-29, 18 µM (inactive); in the assay with DMS-273, 18.3 µM (inactive); with RPMI-8226 it was 20.7 µM (inactive); with OVCAR-3, 17.6 µM (inactive); in the assay with HCT-116, 10.2 µM (inactive). The GI50 is 4.62 µM (inactive) with HL-60; 12.1 µM (inactive) in the assay with UACC-62; 16.9 µM (inactive) with U-251; 19 µM (inactive) in the assay with NCI-H23; 17 µM (inactive) with SK-MEL-28.

Take `c1c[nH]c(Cc2nc(Cc3c[nH]cn3)c[nH]2)n1`: the GI50 is 33.5 µM (inactive) with OVCAR-8; 35.6 µM (inactive) with SNB-75; 16.5 µM (inactive) in the assay on IGROV-1; 3.37 µM (inactive) in the assay on K562; 11.2 µM (inactive) with NCI-H226; 1.53 µM (inactive) with OVCAR-5. For the same compound, the GI50 in the assay with SK-MEL-5 is 20.7 µM (inactive); with HT-29, 4.12 µM (inactive); with DMS-273, 15.2 µM (inactive); in the assay on RPMI-8226, 10.1 µM (inactive); in the assay on OVCAR-3 it was 55.8 µM (inactive); in the assay on HCT-116, 29.5 µM (inactive). The GI50 in the assay on HL-60 was 3.66 µM (inactive); in the assay with UACC-62, 19.8 µM (inactive); with U-251, 34 µM (inactive); in the assay on NCI-H23, 34.8 µM (inactive); in the assay on SK-MEL-28, 28.2 µM (inactive).

Turning to `CC(C)(C)C1CCP(=O)(c2ccccc2)CC1` (stereo not given), the GI50 in the assay on OVCAR-8, in the assay on SNB-75, with IGROV-1, with K562, with NCI-H226 and in the assay with OVCAR-5 was > 100 µM (inactive) in each case. The GI50 with SK-MEL-5, with HT-29, in the assay on DMS-273, in the assay on RPMI-8226, in the assay on OVCAR-3 and in the assay with HCT-116 was > 100 µM (inactive) each time. The GI50 in the assay on HL-60, in the assay with UACC-62, in the assay with U-251, with NCI-H23 and in the assay with SK-MEL-28 was > 100 µM (inactive) throughout.
